From paper PMC8079033, “Design, synthesis, anticancer evaluation, and molecular modelling studies of novel tolmetin derivatives as potential VEGFR-2 inhibitors and apoptosis inducers” (Journal of Enzyme Inhibition and Medicinal Chemistry, 2021) come the findings set out here.

The test system of test [1] is caspase-3. The test can be described thus: Caspase-3 (active) ELISA in HCT-15 cells. In kind it is cell-based, human. The protocol:
The level of the apoptotic marker caspase-3 was assessed using Human Caspase-3 (active) ELISA Kit Catalog # KHO1091. The procedure of the used kit was done according to the manufacturer’s instructions. Allow all reagents to reach room temperature before use. Gently mix all liquid reagents prior to use. Add 100 µl of the standard diluent buffer to the zero standard wells. Add 100 µl of standards and controls or diluted samples to the appropriate microtiter wells. Incubate for 2 h at room temperature. […] Incubate for 1 h at room temperature. Add 100 µl anti-rabbit IgG HRP working solution to each well. Prepare the working dilution and incubate for 30 min at room temperature. Add 100 µl of stabilised chromogen to each well. The liquid in the wells will begin to turn blue. Incubate for 30 min at room temperature and in the dark. Add 100 µl of stop solution to each well. The solution in the wells should change from blue to yellow. Read the absorbance of each well at 450 nm. Read the plate within 2 h after adding the stop solution. Use a curve fitting software to generate the standard curve. Read the concentrations for unknown samples and controls from the standard curve.
(§1) The activation of caspases as caspase-3, caspase-8, and caspase-9 is responsible for apoptosis, particularly caspase-3 which is an effector caspase that has an important role in apoptosis. It is activated by one of the initiator caspases which results in the activation of certain enzymes responsible for the fragmentation of DNA[53]. Caspase-8 and -9 are initiator caspases that are responsible for caspase-3 activation.
(In general: In an ELISA, binding on a coated surface is turned into a signal by an enzyme label.)

The subject of test [2] is caspase-9. The test can be described thus: Caspase-9 ELISA in HCT-15 cells. Format: cell-based, human. The protocol: (§2) To measure caspase-8 and caspase-9 levels, DRG® Caspase-8 (human) (EIA-4863) ELISA and DRG® Caspase-9 (human) (EIA-4860) ELISA kits were used. Briefly, prepare cell extracts after induction of apoptosis. Resuspend the extracts in lysis buffer, incubate 60 min at room temperature, and centrifuge for 15 min. Wash the microwell strips with 400 µl wash buffer. Add 100 µl of sample diluent in duplicate to all standard wells. Add 100 µl of sample diluent in duplicate to the blank wells. Add 50 µl of sample diluent to the sample wells. Add 50 µl of each sample in duplicate to the sample wells. Add 50 µl of detection antibody to all wells and incubate at room temperature for 2 h. Add 100 µl of diluted anti-rabbit-IgG-HRP to all wells, including the blank wells. Pipette 100 µl of (3,3′,5,5′-Tetramethylbenzidine) TMB substrate solution to all wells and incubate at room temperature for about 15 min. Stop the enzyme reaction by pipetting 100 µl of stop solution into each well. Read absorbance of each microwell on a spectro-photometer using 450 nm. Determine the absorbance of both the samples and the standards.
as §1

In test [3] the test system is renal (UO-31) cell line. Briefly: MTT cytotoxicity assay. As to conditions: Homo sapiens, mean ± SD of three experiments. In kind it is cell-based.
Test [4] has as its system leukaemia HL-60 (TB) cell line. Briefly: MTT cytotoxicity assay. Format: cell-based. As to conditions: Homo sapiens, mean ± SD of three experiments.
Test [5] relates to colon (HCT-15) cell line. Briefly: MTT cytotoxicity assay. Format: cell-based. As to conditions: Homo sapiens, mean ± SD of three experiments. Background: Formazan colour is commonly taken as a measure of viable cells.
For test [6], the system named is caspase-8. The test can be described thus: Caspase-8 ELISA in HCT-15 cells. In kind it is cell-based, human. The protocol:
as §2, §1

Test [7] has as its system HUVECs. The test can be described thus: Wound healing assay (CytoSelect 24-well). As to conditions: 72 h, 5b 2.4 µM, sunitinib 3.2 µM, control 97.03 ± 5.47. In kind it is cell-based, human. The protocol:
Wound healing assay of compound 5b was evaluated using CytoSelect™ 24-Well Wound Healing Assay kit Catalog # CBA-120 according to manufacturer’s instructions. In brief, the 24-well plate wound healing inserts were allowed to warm up at room temperature for 10 minutes, then to each well, 500 µl of human umbilical vascular endothelial cells (HUVECs) suspension (1.0 × 10^6) in media containing 10% fetal bovine serum (FBS) was added. Cells were kept in a cell culture incubator until a monolayer form. Carefully the insert was removed from the well. The media were slowly aspirated and discarded from the wells. The wells were washed with media to remove dead cells and debris. Finally, the media were added to wells to keep cells hydrated, then wells were visualized under a light microscope. […] The percent closure of the cells into the wound field was measured.
One of the hallmarks of angiogenesis is cell migration, which happens in the earlier stages of the angiogenic cascade. A wound-healing assay was performed to investigate in vitro anti-angiogenic property of compound 5b.

Regarding `CCN(CC)CCNC(=O)c1c(C)[nH]c(/C=C2\C(=O)Nc3ccc(F)cc32)c1C` [Sunitinib, reference compound], the Caspase-3 in test [1] (mean ± SD of three experiments, control 0.073 ± 0.01) worked out at 0.641 ± 0.02 ng/mL. The “increase in the level of caspase-3” value in test [1] (vs control) was found to be 8.780 fold. Further, the Caspase-9 in test [2] (mean ± SD of three experiments, control 3.225 ± 0.44) is 27.26 ± 0.82 ng/mL. Further, in test [2] (vs control), the “increase in the level of caspase-9” value is 8.453 fold. Besides, the IC50 (as a rule, the midpoint of a concentration-inhibition curve) in test [3] is 18.1 ± 0.95 µM; in test [4] it was 2.77 ± 0.14 µM; in test [5] it was 9.06 ± 0.49 µM. The same compound came in with a Caspase-8 in test [6] (mean ± SD of three experiments, control 0.377 ± 0.03) of 1.284 ± 0.11 ng/mL. Moreover, the “increase in the level of caspase-8” value in test [6] (vs control) came out at 3.406 fold. Besides, the Wound closure percentage in test [7] is 44.44 ± 2.51%.
